Results on one compound are retold here after article PMC7312435, “Direct inhibition of the TLR4/MyD88 pathway by geniposide suppresses HIF‐1α‐independent VEGF expression and angiogenesis in hepatocellular carcinoma” (British Journal of Pharmacology, 2020).

The target of this experiment is T1, recombinant human TLR4 (Homo sapiens, UniProt O00206).
T1 construct: amine-coupled to CM5 chip
The experiment is described as follows: surface plasmon resonance (Biacore X100), steady-state fit. Type of experiment: binding. The note with it: PBS with 0.05% Triton X-100, pH 7.4; geniposide 0-12.8 uM; TLR4 immobilised on CM5 chip (1,300 RU). In general terms: SPR reads the build-up and loss of mass on a sensor chip optically.

Each structure is given as a SMILES string.

T1 sequence (O00206 24-839): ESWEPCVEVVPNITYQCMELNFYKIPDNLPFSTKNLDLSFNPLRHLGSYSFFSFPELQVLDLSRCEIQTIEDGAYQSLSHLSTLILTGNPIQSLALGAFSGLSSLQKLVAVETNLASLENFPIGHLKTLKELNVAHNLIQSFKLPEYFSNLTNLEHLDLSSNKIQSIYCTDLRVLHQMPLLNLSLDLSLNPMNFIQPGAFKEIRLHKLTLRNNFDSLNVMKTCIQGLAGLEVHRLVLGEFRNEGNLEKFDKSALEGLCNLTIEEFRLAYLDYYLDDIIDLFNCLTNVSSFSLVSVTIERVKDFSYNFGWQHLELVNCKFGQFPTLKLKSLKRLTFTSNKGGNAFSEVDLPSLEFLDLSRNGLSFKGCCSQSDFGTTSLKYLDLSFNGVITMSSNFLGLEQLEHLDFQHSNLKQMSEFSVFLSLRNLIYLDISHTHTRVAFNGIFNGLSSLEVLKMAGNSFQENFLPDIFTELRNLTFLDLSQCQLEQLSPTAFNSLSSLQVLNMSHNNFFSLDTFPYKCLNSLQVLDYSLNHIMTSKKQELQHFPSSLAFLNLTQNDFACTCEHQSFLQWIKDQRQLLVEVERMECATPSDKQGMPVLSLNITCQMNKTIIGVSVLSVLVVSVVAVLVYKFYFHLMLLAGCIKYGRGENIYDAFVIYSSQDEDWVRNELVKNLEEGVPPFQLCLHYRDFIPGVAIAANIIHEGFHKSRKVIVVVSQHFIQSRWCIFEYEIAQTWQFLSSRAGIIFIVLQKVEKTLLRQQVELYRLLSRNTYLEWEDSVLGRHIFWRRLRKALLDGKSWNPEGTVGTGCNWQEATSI

Turning to `COC(=O)C1=CO[C@@H](O[C@@H]2O[C@H](CO)[C@@H](O)[C@H](O)[C@H]2O)[C@@H]2C(CO)=CC[C@H]12` [geniposide], the “K D” value is 6.716e^−6 M.
